According to US10261079B2, “Method for determining kinetic profiles in drug discovery” (priority 2015, dated 2019):

Experiments:
[1] = target: T1, PI3Kdelta (Homo sapiens, UniProt O00329); experiment: TR-FRET kinetic competitive binding, Binding Kinetic Profiling mode; conditions: Tracer 314 5 nM, compound 250 nM to 0
T1 construct: purchased Carna Biosciences
Source text: X is time, expressed in min.
The present example illustrates the kinetic characterization of two different inhibitors against the same target by using the platform of the invention in the Binding Kinetic Profiling mode. […] The characterized Tracer^314 (Life Technologies) has been used as labeled ligand (tracer).
In order to determine the kinetic profile of these inhibitors (Kon, Koff, Kd and t1/2), experimental data were fitted to the “Kinetics of competitive binding”. This model describes the kinetic behavior of two compounds when compete for the binding to the same target.
The experiment is performed as described in Example 1 for the tracer characterization. The samples are prepared in the kinase buffer A at the same concentrations described in example 1 (PI3Kdelta at 0.5 nM and Eu-antiGST antibody at 2 nM). Control wells in the microplate with PI-103 inhibitor at 10 μM are also included to account for unspecific binding. […] These serial dilutions were prepared in a mother plate (at 2 times the assay concentration) and quickly dispensed to the analysis plate, being the last one disposed in the well the kinase PI3Kdelta.
The tracer concentration (L) is also constrained to the tracer concentration employed in the assay, i.e., 5 nM in the present example. […] The term t1/2 is calculated as −ln[0.5] divided by the K4 value.

[2] = target: CDK8/Cyclin C (Homo sapiens, UniProt P49336); experiment: TR-FRET kinetic competitive binding, Kinetic Selectivity Profiling mode; conditions: Tracer 236 10 nM, kinase 2 nM
Sequence of CDK8/Cyclin C (P49336 whole entry, species assumed): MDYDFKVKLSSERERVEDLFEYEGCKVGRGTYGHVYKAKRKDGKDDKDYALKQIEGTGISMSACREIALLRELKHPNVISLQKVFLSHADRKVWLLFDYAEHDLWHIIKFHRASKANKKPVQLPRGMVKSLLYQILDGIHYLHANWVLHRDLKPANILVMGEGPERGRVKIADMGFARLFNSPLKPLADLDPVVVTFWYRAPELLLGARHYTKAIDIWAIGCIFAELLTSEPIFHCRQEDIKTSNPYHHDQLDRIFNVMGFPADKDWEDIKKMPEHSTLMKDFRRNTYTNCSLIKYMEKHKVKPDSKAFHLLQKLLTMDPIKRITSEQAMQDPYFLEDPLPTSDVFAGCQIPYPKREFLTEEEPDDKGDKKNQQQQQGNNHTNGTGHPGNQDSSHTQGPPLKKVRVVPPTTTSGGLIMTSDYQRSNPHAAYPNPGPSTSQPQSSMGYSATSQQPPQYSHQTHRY
Sequence of CDK8/Cyclin C (P24863 whole entry partner, species assumed): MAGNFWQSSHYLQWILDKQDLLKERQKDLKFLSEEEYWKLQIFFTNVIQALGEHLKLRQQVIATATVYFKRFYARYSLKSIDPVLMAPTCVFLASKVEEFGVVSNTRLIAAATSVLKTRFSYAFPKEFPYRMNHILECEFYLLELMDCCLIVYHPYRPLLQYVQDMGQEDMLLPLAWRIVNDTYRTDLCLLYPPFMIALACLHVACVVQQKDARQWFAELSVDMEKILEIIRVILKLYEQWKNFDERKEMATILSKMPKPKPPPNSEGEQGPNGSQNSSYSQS
Source text: SQRT is the mathematical abbreviation for squared root. X is time, expressed in min.

T1 sequence (O00329 whole entry): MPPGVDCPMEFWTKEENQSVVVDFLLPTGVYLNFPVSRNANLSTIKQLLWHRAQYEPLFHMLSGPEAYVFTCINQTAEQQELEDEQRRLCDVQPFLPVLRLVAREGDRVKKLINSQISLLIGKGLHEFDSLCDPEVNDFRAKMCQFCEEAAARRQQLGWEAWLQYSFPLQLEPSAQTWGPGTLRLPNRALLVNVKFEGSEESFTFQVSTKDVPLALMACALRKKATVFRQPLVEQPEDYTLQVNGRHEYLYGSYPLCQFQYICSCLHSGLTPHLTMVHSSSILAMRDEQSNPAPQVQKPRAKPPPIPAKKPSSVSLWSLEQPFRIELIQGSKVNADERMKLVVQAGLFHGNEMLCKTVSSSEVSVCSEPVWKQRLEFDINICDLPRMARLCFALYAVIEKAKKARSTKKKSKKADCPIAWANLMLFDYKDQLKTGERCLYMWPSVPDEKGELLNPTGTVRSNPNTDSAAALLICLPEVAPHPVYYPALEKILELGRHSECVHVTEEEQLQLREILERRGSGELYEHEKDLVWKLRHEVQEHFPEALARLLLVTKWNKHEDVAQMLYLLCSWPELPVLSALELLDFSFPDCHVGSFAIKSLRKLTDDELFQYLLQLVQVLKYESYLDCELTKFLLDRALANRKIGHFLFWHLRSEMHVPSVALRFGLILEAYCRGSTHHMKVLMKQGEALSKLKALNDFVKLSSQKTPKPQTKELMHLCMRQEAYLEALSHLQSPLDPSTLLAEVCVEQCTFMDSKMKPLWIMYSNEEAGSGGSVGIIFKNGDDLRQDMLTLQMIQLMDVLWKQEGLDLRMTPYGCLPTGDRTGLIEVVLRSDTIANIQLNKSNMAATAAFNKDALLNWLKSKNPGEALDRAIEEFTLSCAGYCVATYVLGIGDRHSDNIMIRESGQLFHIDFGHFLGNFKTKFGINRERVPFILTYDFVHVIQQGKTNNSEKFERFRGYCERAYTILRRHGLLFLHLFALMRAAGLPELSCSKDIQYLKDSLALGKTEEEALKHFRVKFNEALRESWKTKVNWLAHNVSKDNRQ
T1 sequence (P27986 whole entry partner): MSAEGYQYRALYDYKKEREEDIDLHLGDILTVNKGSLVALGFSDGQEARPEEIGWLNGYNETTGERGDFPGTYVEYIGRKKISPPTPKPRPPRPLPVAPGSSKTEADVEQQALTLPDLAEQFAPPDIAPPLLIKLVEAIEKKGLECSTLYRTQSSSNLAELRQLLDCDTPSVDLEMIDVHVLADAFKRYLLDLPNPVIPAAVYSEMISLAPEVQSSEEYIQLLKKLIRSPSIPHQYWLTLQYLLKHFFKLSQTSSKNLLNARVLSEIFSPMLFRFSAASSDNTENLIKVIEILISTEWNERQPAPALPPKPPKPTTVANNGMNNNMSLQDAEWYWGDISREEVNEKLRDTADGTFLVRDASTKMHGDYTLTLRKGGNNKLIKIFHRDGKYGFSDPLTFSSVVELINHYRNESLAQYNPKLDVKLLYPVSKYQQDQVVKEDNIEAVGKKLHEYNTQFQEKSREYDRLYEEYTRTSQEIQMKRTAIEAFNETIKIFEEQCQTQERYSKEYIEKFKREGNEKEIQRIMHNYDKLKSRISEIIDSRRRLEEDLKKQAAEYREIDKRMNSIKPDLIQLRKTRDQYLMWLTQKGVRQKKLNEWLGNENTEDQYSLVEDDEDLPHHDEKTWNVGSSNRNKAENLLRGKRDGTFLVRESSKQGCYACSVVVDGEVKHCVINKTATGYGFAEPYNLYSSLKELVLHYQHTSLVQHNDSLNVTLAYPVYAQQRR

In the case of `Cn1c(=O)n(-c2ccc(C(C)(C)C#N)cc2)c2c3cc(-c4cnc5ccccc5c4)ccc3ncc21` [BEZ235], the “dissociation from the target” value [1] is reported as “mili-seconds”.
With `CN[C@@H]1C[C@H]2O[C@@](C)([C@@H]1OC)n1c3ccccc3c3c4c(c5c6ccccc6n2c5c31)C(=O)NC4` [Staurosporine] the “duration of the interaction with CDK8” value [2] was 20 min.
`COC[C@H]1OC(=O)c2coc3c2[C@@]1(C)C1=C(C3=O)[C@@H]2CCC(=O)[C@@]2(C)C[C@H]1OC(C)=O` [Wortmanine] was tested, and the “dissociative half-life of the complex with PI3Kdelta (t1/2)” value [1] was “around 300 min”.
